# Assay results reported in US20220169680A1 (priority 2018, published 2022).
# Assays:
# Assay type in all cases: cell-based
# [1] = tested on: 293T cells
# [2] = tested on: A549 cells
# [3] = tested on: A549 cells; remark: listed apart in the source
Substance,cell-penetrating peptide function compared with the parent polypeptide [1],"ability to carry small RNA into cells compared with the transfection reagent RNAiMax group, qPCR [2]",cell-penetrating peptide function compared with the parent polypeptide (confocal imaging) [3],cell entry of rhodamine-labeled polypeptide [3]
DRLFFKRIYRRLKYRLKRRPST [Jilin-2004(H5N1)-M2-44-65 mut27],stronger than that of the parent Jilin-2004(H5N1)-M2-44-65 polypeptide,stronger than the transfection reagent RNAiMax group,–,–
SLFFKCIYRRLKYGLKRG [Jilin-2004(H5N1)-M2-45-62 mut45],–,stronger than the transfection reagent RNAiMax group,stronger than that of the parent Jilin-2004(H5N1)-M2-45-62 polypeptide,–
RLFIKCIYRRLKYGLKRG [Jilin-2004(H5N1)-M2-45-62 mut48],–,stronger than the transfection reagent RNAiMax group,stronger than that of the parent Jilin-2004(H5N1)-M2-45-62 polypeptide,–
RLFFRRIYRRLRYRLKRG [Jilin-2004(H5N1)-M2-45-62 mut4],–,–,stronger than that of the parent Jilin-2004(H5N1)-M2-45-62 polypeptide,–
RLFFKCIYRRLKYGLKTG [Jilin-2004(H5N1)-M2-45-62 mut61],–,stronger than the transfection reagent RNAiMax group,stronger than that of the parent Jilin-2004(H5N1)-M2-45-62 polypeptide,–
RRFFFKCIYRRLKYGLKRGPST [Jilin-2004(H5N1)-M2-44-65 mut17],stronger than that of the parent Jilin-2004(H5N1)-M2-44-65 polypeptide,stronger than the transfection reagent RNAiMax group,–,–
RLFFRRIYRRLRYRLRRG [Jilin-2004(H5N1)-M2-45-62 mut5],–,stronger than the transfection reagent RNAiMax group,stronger than that of the parent Jilin-2004(H5N1)-M2-45-62 polypeptide,–
KRGPSTEGVPESMREEYREEQQN [Caledonia/20/1999(H1N1)-M2-N-M-AH(60-82)],–,–,–,did not enter the cells
KRGPSTAGVPESMREEYRQEQQN [A/HongKong/97/98(H5N1)-M2-N-M-AH(60-82)],–,–,–,did not enter the cells
RLFFKCIYRRLKYGLKRG [A/HongKong/97/98(H5N1)-M2-N-M-AH(45-62)],–,–,–,could all enter A549 cells
RLFFRRIYRRLRYRLRRR [Jilin-2004(H5N1)-M2-45-62 mut6],–,–,stronger than that of the parent Jilin-2004(H5N1)-M2-45-62 polypeptide,–
RLFSKSIYR1FKHGLKRG [Caledonia/20/1999(H1N1)-M2-N-M-AH(45-62)],–,–,–,could all enter A549 cells
RLFFRRIYRRLKYGLKRG [Jilin-2004(H5N1)-M2-45-62 mut2],–,–,stronger than that of the parent Jilin-2004(H5N1)-M2-45-62 polypeptide,–
RLFFKCAYRRLKYGLKRG [Jilin-2004(H5N1)-M2-45-62 mut51],–,stronger than the transfection reagent RNAiMax group,stronger than that of the parent Jilin-2004(H5N1)-M2-45-62 polypeptide,–
RFFFRRFFRRFRFRFRRR [Jilin-2004(H5N1)-M2-45-62 mut13],–,–,stronger than that of the parent Jilin-2004(H5N1)-M2-45-62 polypeptide,–
RLFFRRIYRRLRYGLKRG [Jilin-2004(H5N1)-M2-45-62 mut3],–,–,stronger than that of the parent Jilin-2004(H5N1)-M2-45-62 polypeptide,–
